From patent US20230416248A1, “COMPOUNDS AND USES THEREOF” (Foghorn Therapeutics Inc., priority 2020, published 2023)

Tests used:
BRM = target: T1, BRM (Homo sapiens, UniProt P51531); test: ATPase catalytic activity of BRM, ADP-Glo in vitro biochemical assay; conditions: for IC50: ADP-Glo ATPase assay, 30 nM BRM, 400 μM ATP; for Ratio* (BRG1 IC50 (μM) divided by BRM IC50 (μM)): selectivity ratio BRG1 IC50 / BRM IC50
T1 construct: made in house; host or cells: High Five insect cells
Summary of the method: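 ADP-Glo luminescence, after depletion of leftover ATP and conversion of ADP, reported the activity. The 1 h room-temperature reaction held 400 μM ATP, 20 nM salmon sperm DNA and 30 nM BRM in 20 mM Tris pH 8, 20 mM MgCl2, 50 mM NaCl, 0.1% Tween-20, 1 mM DTT.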

BRG-1 = target: T2, BRG-1 (Homo sapiens, UniProt P51532); test: ATPase catalytic activity of BRG-1, ADP-Glo in vitro biochemical assay; conditions: ADP-Glo ATPase assay, 30 nM BRG-1, 400 μM ATP; read-out: BRG1 IC50
T2 construct: made in house; host or cells: High Five insect cells
Summary of the method: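 ADP produced by BRG-1 was quantified by luciferase luminescence. A 60 min room-temperature ADP-to-ATP conversion followed a 40 min ATP-depletion step.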

T1 sequence (P51531 whole entry): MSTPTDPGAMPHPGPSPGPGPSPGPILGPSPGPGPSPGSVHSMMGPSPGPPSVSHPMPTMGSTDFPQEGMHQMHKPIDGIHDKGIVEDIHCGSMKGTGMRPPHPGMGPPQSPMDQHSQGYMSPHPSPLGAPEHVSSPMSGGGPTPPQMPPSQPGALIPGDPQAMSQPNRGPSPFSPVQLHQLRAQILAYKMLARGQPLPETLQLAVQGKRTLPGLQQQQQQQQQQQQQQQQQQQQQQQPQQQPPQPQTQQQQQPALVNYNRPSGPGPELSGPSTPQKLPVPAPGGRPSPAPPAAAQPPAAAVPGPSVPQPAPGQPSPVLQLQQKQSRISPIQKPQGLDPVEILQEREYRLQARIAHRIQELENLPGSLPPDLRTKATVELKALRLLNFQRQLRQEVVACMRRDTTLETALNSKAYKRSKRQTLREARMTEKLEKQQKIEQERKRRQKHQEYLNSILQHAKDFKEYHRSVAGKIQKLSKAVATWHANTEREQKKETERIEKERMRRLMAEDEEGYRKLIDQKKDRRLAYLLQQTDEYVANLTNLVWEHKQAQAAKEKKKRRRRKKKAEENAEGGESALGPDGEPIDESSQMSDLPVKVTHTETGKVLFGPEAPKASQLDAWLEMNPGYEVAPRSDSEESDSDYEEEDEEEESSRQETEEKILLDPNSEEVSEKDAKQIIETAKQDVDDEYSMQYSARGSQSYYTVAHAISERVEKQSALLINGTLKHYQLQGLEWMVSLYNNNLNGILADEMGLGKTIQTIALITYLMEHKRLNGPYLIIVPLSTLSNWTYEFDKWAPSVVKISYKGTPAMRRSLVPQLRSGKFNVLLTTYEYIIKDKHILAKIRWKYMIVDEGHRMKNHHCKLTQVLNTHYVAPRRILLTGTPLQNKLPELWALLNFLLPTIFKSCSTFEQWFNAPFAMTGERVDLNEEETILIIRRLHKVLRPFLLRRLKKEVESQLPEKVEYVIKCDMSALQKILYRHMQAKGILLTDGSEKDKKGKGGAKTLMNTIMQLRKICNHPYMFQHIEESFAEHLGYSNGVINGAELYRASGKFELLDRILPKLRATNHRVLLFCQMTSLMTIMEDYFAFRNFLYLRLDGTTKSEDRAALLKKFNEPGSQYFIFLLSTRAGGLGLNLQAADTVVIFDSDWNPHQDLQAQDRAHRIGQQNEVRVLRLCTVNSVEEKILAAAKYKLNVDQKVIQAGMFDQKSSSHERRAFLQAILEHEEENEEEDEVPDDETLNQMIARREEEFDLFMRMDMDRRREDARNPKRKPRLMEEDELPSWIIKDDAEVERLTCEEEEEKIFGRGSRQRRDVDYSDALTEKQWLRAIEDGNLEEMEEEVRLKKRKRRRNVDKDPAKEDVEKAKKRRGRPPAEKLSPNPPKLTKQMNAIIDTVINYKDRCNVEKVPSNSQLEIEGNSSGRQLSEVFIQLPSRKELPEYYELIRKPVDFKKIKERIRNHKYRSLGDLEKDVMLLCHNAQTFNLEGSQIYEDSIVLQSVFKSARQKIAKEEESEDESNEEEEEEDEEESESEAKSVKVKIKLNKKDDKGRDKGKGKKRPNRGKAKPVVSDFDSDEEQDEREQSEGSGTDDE
T2 sequence (P51532 whole entry): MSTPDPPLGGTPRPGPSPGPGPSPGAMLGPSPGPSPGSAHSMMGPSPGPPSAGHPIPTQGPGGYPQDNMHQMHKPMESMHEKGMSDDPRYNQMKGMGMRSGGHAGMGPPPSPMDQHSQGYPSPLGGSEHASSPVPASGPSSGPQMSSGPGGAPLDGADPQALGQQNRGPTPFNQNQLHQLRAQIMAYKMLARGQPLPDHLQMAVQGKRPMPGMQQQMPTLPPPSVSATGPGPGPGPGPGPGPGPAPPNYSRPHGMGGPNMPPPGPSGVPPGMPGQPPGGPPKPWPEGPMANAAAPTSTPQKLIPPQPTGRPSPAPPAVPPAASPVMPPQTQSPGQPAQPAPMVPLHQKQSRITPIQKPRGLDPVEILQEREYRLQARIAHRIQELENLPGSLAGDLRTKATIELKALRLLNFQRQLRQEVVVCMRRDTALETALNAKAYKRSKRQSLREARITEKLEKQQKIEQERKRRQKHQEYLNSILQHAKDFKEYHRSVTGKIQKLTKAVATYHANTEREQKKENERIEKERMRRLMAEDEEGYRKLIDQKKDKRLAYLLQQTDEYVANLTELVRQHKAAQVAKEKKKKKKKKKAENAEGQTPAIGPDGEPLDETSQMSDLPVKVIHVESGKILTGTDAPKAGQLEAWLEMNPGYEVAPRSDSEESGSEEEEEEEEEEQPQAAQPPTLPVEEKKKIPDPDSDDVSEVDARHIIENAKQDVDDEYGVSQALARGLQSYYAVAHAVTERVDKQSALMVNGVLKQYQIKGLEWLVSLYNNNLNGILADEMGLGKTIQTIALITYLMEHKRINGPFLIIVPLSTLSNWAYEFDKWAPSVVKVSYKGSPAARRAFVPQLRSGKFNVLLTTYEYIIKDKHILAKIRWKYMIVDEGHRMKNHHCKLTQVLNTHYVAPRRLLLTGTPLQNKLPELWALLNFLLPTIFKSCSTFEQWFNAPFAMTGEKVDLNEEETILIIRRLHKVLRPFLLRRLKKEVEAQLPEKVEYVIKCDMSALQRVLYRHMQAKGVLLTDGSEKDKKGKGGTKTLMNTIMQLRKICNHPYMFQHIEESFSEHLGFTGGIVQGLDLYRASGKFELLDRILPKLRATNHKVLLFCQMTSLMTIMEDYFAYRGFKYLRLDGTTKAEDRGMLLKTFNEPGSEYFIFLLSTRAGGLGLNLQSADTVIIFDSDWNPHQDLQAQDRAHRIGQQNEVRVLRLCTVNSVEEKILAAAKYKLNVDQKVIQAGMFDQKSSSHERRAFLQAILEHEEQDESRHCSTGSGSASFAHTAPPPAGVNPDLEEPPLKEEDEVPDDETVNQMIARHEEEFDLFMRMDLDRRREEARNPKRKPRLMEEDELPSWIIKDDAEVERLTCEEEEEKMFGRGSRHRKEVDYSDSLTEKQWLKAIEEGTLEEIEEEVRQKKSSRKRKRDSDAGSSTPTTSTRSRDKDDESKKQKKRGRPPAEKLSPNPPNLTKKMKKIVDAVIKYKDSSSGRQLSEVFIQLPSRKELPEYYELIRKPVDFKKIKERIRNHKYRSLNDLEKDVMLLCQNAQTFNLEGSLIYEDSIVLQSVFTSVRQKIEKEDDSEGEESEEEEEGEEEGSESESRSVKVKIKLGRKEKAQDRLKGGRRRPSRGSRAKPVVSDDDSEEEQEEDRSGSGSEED

| SMILES | IC50 (BRM) | Ratio* (BRG1 IC50 (μM) divided by BRM IC50 (μM)) (BRM) | IC50 (BRG-1) |
| --- | --- | --- | --- |
| COCCN(C)c1cccc(-c2ccc3cnc(CNC(=O)c4ccc5c(c4)S(=O)(=O)CCOC5)cc3n2)n1 [Compound 145] | 0.0036 µM | 15.77 | 0.0571 µM |
| Cc1cc2c(-c3ccc4cnc(CNC(=O)c5ccc6c(c5)S(=O)(=O)CCOC6)cc4n3)ccnc2n1C [Compound 146] | 0.0153 µM | 12.92 | 0.197 µM |
| COc1nn([C@H]2C[C@@H](F)C2)cc1-c1ccc2cnc(CNC(=O)c3ccc4c(c3)S(=O)(=O)CCOC4)cc2n1 [Compound 148] | 0.455 µM | 6.80 | 3.09 µM |
| COc1nn([C@H]2C[C@H](F)C2)cc1-c1ccc2cnc(CNC(=O)c3ccc4c(c3)S(=O)(=O)CCOC4)cc2c1 [Compound 149] | 0.0366 µM | 22.13 | 0.81 µM |
| C[C@@H]1CN(c2cc(-c3ccc4cnc(CNC(=O)c5ccc6c(c5)S(=O)(=O)CCOC6)cc4n3)ccn2)C[C@H](C)O1 [Compound 153] | 0.0463 µM | 9.74 | 0.451 µM |
| O=C(NCc1cc2nc(-c3cccc(C4(F)CCC4)n3)ccc2cn1)c1ccc2c(c1)S(=O)(=O)CCOC2 [Compound 154] | 0.142 µM | 14.94 | 2.13 µM |
| C[C@@H]1CN(c2cccc(-c3ccc4cnc(CNC(=O)c5ccc6c(c5)S(=O)(=O)[C@@H](C)COC6)cc4n3)n2)C[C@H](C)O1 [Compound 155] | 0.0045 µM | 5.59 | 0.0252 µM |
| C[C@@H]1CN(c2cccc(-c3ccc4cnc(CNC(=O)c5ccc(C(F)F)c(S(C)(=O)=O)c5)cc4n3)n2)C[C@@H](C)O1 [Compound 158] | 0.0131 µM | 20.03 | 0.262 µM |
| C[C@@H]1CN(c2cccc(-c3cnc4cnc(CNC(=O)c5ccc6c(c5)S(=O)(=O)CCOC6)cc4c3)n2)C[C@H](C)O1 [Compound 161] | 0.0047 µM | 9.62 | 0.0452 µM |
| CC(C)Oc1cccc(-c2ccc3cnc(CNC(=O)c4ccc5c(c4)S(=O)(=O)CCOC5)cc3n2)n1 [Compound 165] | 0.116 µM | 18.39 | 2.12 µM |
| Cc1cc(-c2cccc(-c3ccc4cnc(CNC(=O)c5ccc6c(c5)S(=O)(=O)CCOC6)cc4n3)n2)cc(C)n1 [Compound 169] | 0.003 µM | 3.33 | 0.0099 µM |
| O=C(NCc1cc2nc(-c3cccc(C4CC(F)(F)C4)n3)ccc2cn1)c1ccc2c(c1)S(=O)(=O)CCOC2 [Compound 171] | 0.0524 µM | 9.52 | 0.499 µM |
| COCCN1CCOc2c(-c3ccc4cnc(CNC(=O)c5ccc6c(c5)S(=O)(=O)CCOC6)cc4n3)cccc21 [Compound 172] | 0.0092 µM | 11.42 | 0.105 µM |
| CN(c1cccc(-c2ccc3cnc(CNC(=O)c4ccc5c(c4)S(=O)(=O)CCOC5)cc3n2)n1)C1CCOCC1 [Compound 174] | 0.0288 µM | 9.24 | 0.266 µM |

Further lines, results first:

| IC50 (BRM) | Ratio* (BRG1 IC50 (μM) divided by BRM IC50 (μM)) (BRM) | IC50 (BRG-1) | SMILES |
| --- | --- | --- | --- |
| 0.0156 µM | 25.22 | 0.394 µM | C[C@@H]1CN(c2cccc(-c3ccc4cnc(CNC(=O)c5cc(F)c(C(F)F)c(S(C)(=O)=O)c5)cc4n3)n2)C[C@H](C)O1 [Compound 147] |
| 0.0338 µM | 11.71 | 0.396 µM | O=C(NCc1cc2nc(N3CCCc4cccnc43)ccc2cn1)c1ccc2c(c1)S(=O)(=O)CCOC2 [Compound 150] |
| 0.0608 µM | 11.00 | 0.669 µM | Cn1ccc2c(-c3ccc4cnc(CNC(=O)c5ccc6c(c5)S(=O)(=O)CCOC6)cc4n3)ccnc21 [Compound 151] |
| 0.136 µM | 15.77 | 2.14 µM | COc1nn([C@H]2C[C@H](F)C2)cc1-c1ccc2cnc(CNC(=O)c3ccc4c(c3)S(=O)(=O)CCOC4)cc2n1 [Compound 152] |
| 0.366 µM | 5.25 | 1.92 µM | O=C(NCc1cc2nc(N3CCCc4ncccc43)ccc2cn1)c1ccc2c(c1)S(=O)(=O)CCOC2 [Compound 156] |
| 0.0145 µM | 21.99 | 0.32 µM | C[C@@H]1CN(c2nccc(-c3ccc4cnc(CNC(=O)c5ccc(C(F)F)c(S(C)(=O)=O)c5)cc4n3)n2)C[C@H](C)O1 [Compound 157] |
| 0.0367 µM | 11.15 | 0.409 µM | C[C@@H]1CN(c2cccc(-c3ccc4cnc(CNC(=O)c5ccc6c(c5)S(=O)(=O)[C@H](C)COC6)cc4n3)n2)C[C@H](C)O1 [Compound 159] |
| 0.003 µM | 4.54 | 0.0136 µM | C[C@@H]1CN(c2cccc(-c3ccc4nnc(CNC(=O)c5ccc6c(c5)S(=O)(=O)CCOC6)cc4c3)n2)C[C@H](C)O1 [Compound 160] |
| 0.0384 µM | 14.67 | 0.564 µM | C[C@H]1CN(c2cccc(-c3ccc4cnc(CNC(=O)c5ccc(C(F)F)c(S(C)(=O)=O)c5)cc4n3)n2)C[C@H](C)O1 [Compound 162] |
| 0.0208 µM | 12.71 | 0.264 µM | C[C@@H]1CN(c2cncc(-c3ccc4cnc(CNC(=O)c5ccc(C(F)F)c(S(C)(=O)=O)c5)cc4n3)n2)C[C@H](C)O1 [Compound 163] |
| 0.11 µM | 12.80 | 1.41 µM | CS(=O)(=O)c1cc(C(=O)NCc2cc3nc(-c4cncc(C5CC5)n4)ccc3cn2)ccc1CC(F)F [Compound 164] |
| 0.0168 µM | 12.29 | 0.206 µM | C[C@@H]1CN(c2ccc(F)c(-c3ccc4cnc(CNC(=O)c5ccc6c(c5)S(=O)(=O)CCOC6)cc4n3)n2)C[C@H](C)O1 [Compound 166] |
| 0.0593 µM | 13.95 | 0.827 µM | O=C(NCc1cc2nc(-c3cccc(OCC(F)F)n3)ccc2cn1)c1ccc2c(c1)S(=O)(=O)CCOC2 [Compound 167] |
| 0.094 µM | 9.35 | 0.879 µM | COC1CCOc2c(-c3ccc4cnc(CNC(=O)c5ccc6c(c5)S(=O)(=O)CCOC6)cc4n3)cccc21 (stereo not drawn) [Compound 168] |
| 0.109 µM | 6.33 | 0.689 µM | O=C(NCc1cc2nc(-c3cccc(C4(F)CC(F)(F)C4)n3)ccc2cn1)c1ccc2c(c1)S(=O)(=O)CCOC2 [Compound 170] |
| 0.108 µM | 13.78 | 1.49 µM | C[C@@H]1[C@@H](c2cccc(-c3ccc4cnc(CNC(=O)c5ccc6c(c5)S(=O)(=O)CCOC6)cc4n3)n2)C1(F)F [Compound 173] |
| 0.437 µM | 4.10 | 1.79 µM | CN1CCc2nc(-c3ccc4cnc(CNC(=O)c5ccc6c(c5)S(=O)(=O)CCOC6)cc4n3)ccc21 [Compound 176] |
| 0.0158 µM | 14.02 | 0.222 µM | C[C@@H]1CN(c2cccc(-c3ccc4cnc(CNC(=O)c5ccc(Cl)c(S(C)(=O)=O)c5)cc4n3)n2)C[C@@H](C)O1 [Compound 177] |
